Assay results as given in patent US10941126B2, “Bridged bicycloalkyl-substituted aminothiazoles and their methods of use” (Temple University—Of The Commonwealth System of Higher …, priority 2017, dated 2021).

What was measured:
[1] = target: T1, GSK-3a (Homo sapiens, UniProt P49840); assay: 250 kinome screening at 1 μM; type: biochemical
T1 construct: Nanosyn (contract assay)
Description: (§1) HDAC inhibitory activity assays were performed using FLUOR DE LYS® HDAC fluorometric activity assay kit from Enzo following the manufacturer's instructions. GloMax®-Multi Detection System (Promega) was used to read the fluorescence signals. Histone methyltransferase and demethylase enzymatic assays were performed by BPS Bioscience at 10 μM in duplicates. Kinase enzymatic assays were performed by Nanosyn using microfluidic technology. 250 kinome screening was done in duplicates using MC180295 at 1 μM. IC50 curves against 10 CDKs were created for MC180295. The human kinome tree was annotated using the online Kinome Render software (Chartier, M., Chénard, T., Barker, J., and Najmanovich, R. (2013). PeerJ 1, e126). Isotope kinase assay was performed using previously described methods (Garriga, J., Peng, J., Parreño, M., Price, D. H., Henderson, E. E., and Graña, X. (1998). Oncogene 17, 3093-3102) using recombinant active full-length CDK9/CyclinT1 (Millipore, 14-685) and SMARCA4 (Abcam, ab82237) in the presence or absence of CDK9 inhibitors.

[2] = target: T2, GSK-3β (Homo sapiens, UniProt P49841); assay: 250 kinome screening at 1 μM; type: biochemical
T2 construct: Nanosyn (contract assay)
T2 sequence (P49841 whole entry): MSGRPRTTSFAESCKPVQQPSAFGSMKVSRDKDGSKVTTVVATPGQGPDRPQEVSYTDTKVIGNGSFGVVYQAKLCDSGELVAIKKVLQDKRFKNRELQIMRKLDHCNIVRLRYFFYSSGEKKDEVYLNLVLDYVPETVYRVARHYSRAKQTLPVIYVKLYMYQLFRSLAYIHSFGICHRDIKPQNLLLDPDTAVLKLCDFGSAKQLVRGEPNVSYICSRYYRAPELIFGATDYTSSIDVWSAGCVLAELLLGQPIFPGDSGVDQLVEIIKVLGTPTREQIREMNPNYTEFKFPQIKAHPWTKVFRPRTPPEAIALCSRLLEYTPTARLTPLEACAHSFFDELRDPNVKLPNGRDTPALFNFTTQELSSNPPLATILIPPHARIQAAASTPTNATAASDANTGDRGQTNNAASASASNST
Description: as §1

[3] = tested on: cancer cell lines and normal IMR90 cells; assay: Anti-proliferation assay (trypan blue exclusion); type: cell-based, human; conditions: four days after one-time exposure
Description: Cells were seeded in 96-well plates at 40% confluency in triplicates. Fresh medium was changed the next day and drugs were added directly. After mixing thoroughly, plates were cultured in a 37° C. incubator for two more days. Drug-free fresh medium was changed the fourth day. The cells were collected on day 5 by trypsin, suspended in medium, mixed with trypan blue (1:1 ratio), and counted using LUNA II automated cell counter. Each sample was counted at least three times and the average numbers were used for the analysis. Each treatment condition was performed at least in triplicates.

[4] = tested on: YB5 cells; assay: GFP reactivation in YB5 cells (flow cytometry); type: cell-based, human
Source text: To screen the compounds of the invention for epigenetic anti-cancer activity the YB5 cell-based system, which is derived from the human colon cancer cell line SW48, was used (Si et al., 2010, Cancer Res. 70:6968-6977; Raynal et al., 2012, Cancer Res. 72:1170-1181). YB5 cells contain a single insertion of cytomegalovirus (CMV) promoter driving green fluorescent protein (GFP) gene. GFP expression is silenced in >99.9% of YB5 cells by epigenetic mechanisms. In YB5 cells, the inserted GFP gene behaves similarly to endogenous tumor suppressor genes (TSGs) silenced by epigenetic mechanisms, and it can be reactivated by epigenetic anti-cancer agents such as DNA methylation inhibitors and/or HDAC inhibitors such as depsipeptide (Si et al., 2010, Cancer Res. 70:6968-6977; Raynal et al., 2012, Cancer Research, 72:1170-1181; Wu et al., 2008, Mol. Cell Biol, 28:3219-3235). Thus, reactivation of GFP expression and the resulting fluorescence is a measure of epigenetic anti-cancer activity.
The following procedure may be used to identify compounds of useful in the invention. YB5 cells cultured in L-15 medium supplemented with 10% fetal bovine serum and 1% P/S are treated for 24 hours with varying concentrations (50 nM, 100 nM, 500 nM, 1 μM, 5 μM, 10 μM, 25 μM, and 50 μM) of test compounds. After treatment, cells are trypsinized and re-suspended in cell culture media with propidium iodide (PI) to stain dead cells. Reactivation of GFP is measured using flow cytometry to identify the GFP positive population. The relative activities are expressed as the percent of the response compared to treatment with 20 nM HDACi depsipeptide for 24 hours. YB5 cells are grown in 1% CO2 atmosphere at 37° C.
NDL-3040 compound library consists of 3040 chemically diverse compounds that are semi-natural, derived from natural compounds, or synthetic compounds that are natural-compound-like. The small molecules were arrayed in 96-well plates as 10 mM stocks in 100% DMSO and were purchased from TimTec Inc. An aminothiazole analog library (93 small molecules) was also purchased from the same vendor and was in a 96-well plate format as 10 mM stocks in 100% DMSO. The 3040 compounds were screened at 25 μM for 24 hr. All plates were kept at −80° C. before use. YB5 cells growing in log phase (70-80% confluency) in 96-well plates were used. Each experimental 96-well plate contained 80 different compounds. Compounds were dispensed using an INTEGRA VIAFLO96 96-well pipette. After a 24 hr drug treatment, cells were trypsinized for 10 mins and re-suspended in L-15 medium containing propidium iodide (PI) to stain for dead cells. A total of 10000 cells per well were analyzed using Millipore Guava flow cytometer (EMD, Millipore). GFP positive percentage was calculated by excluding all the PI positive cells. After finishing the screening, the average Z-factor
For drug screening and dose response validations, GFP positive cells were detected by Millipore Guava flow cytometer (EMD, Millipore). Cell cycle analysis was performed using BD FACSCalibur™ by propidium iodide staining four days after drug treatment. Sub-G1 population percentage was also included to measure apoptotic cell proportion. Data were analyzed using FlowJo software version 10.2. For the cell differentiation analysis, cells were washed and stained with propidium iodide (PI), CD11 b (BD Biosciences, #562793) and the isotype control IgG (BD Biosciences, #555748). Flow cytometry analysis was performed on a Millipore Guava flow cytometer (EMD, Millipore). For the ID8 in vivo experiments, ascites was drained from 5-10 mice per group and incubated in ACK buffer (Thermo Fisher) to lyse red blood cells for 10 minutes, then washed. Ascites from each mouse was individually lysed and prepared for flow cytometry. Mononuclear cells collected were cultured for 4 hours in RPMI with 5% Fetal Bovine Serum and in the presence of Cell Stimulation Cocktail (plus protein transport inhibitors; eBioscience). […]

[5] = tested on: SW48 colon cancer cells; assay: SW48-luc tumors in NSG mice (bioluminescence); type: in vivo, mouse; conditions: 10 mg/kg
Description: SW48-luc cell line was generated by transfecting ffluc2ires-h2b-egfp into SW48 cells. GFP positive cells were sorted out one week after transfection and expanded for the in vivo experiments. NSG mice were then inoculated (i.p.) with 1×10^5 SW48-luc cells. One week later, at which time substantial tumor burden was evident by bioluminescence imaging, 5-20 mg/kg MC180295 or drug solvent was administered (i.p) every other day. 200 uL of diluted Pierce™ D-Luciferin, Monosodium Salt (Fisher, 88292) (working concentration: 15 mg/mL) was administered (i.p) into each mouse and was imaged using IVIS imaging system 5 minutes after the administration. Three vehicle treated mice and five drug treated mice were used in this study. MC180295 was dissolved in NMP, Captisol (20% w/v), PEG-400 and normal saline (PBS) in a ratio of 1:4:4:11. NMP first, followed by Captisol and PEG-400. PBS was added last.

T1 sequence (P49840 whole entry): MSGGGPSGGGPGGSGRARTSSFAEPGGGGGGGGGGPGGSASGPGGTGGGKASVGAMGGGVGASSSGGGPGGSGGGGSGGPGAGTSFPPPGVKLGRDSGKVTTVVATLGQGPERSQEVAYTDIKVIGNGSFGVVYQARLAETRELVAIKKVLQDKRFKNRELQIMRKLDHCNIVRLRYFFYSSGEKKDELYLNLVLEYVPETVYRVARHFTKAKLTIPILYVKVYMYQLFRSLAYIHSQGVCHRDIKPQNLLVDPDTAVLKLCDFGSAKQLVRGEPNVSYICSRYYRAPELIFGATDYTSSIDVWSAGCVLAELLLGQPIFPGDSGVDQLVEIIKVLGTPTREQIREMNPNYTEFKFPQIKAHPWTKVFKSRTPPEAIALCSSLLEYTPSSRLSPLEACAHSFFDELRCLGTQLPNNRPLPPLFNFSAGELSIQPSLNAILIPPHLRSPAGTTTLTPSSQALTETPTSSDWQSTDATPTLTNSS

For `Nc1nc(N[C@H]2CC3CCC2C3)sc1C(=O)c1ccccc1[N+](=O)[O-]` (stereo partly drawn) [MC180295], the inhibition [1] was “inhibited”, the inhibition [2] was “inhibited” and the “reduction of proliferation, cancer cells vs normal cells (IMR90)” value [3] was “more effective in reducing proliferation of cancer cells than normal control cells”. The “relative activity to Depsipeptide @ 500 nM %” value ([4]; 500 nM) was 14.10%, the “relative activity to Depsipeptide @ 50 μM %” value ([4]; 50 μM) was 23.32% and the Emax at 1 µM ([4]; Homo sapiens, 24 h, read-out: relative activity to Depsipeptide @ 1 μM %) was 28.8%. The Emax at 5 µM ([4]; Homo sapiens, 24 h, read-out: relative activity to Depsipeptide @ 5 μM %) was 65.4%, the Emax at 10 µM ([4]; Homo sapiens, 24 h, read-out: relative activity to Depsipeptide @ 10 μM %) was 72.8% and the Emax at 25 µM ([4]; Homo sapiens, 24 h, read-out: relative activity to Depsipeptide @ 25 μM %) was 73.3%. The “GFP+ cells” value ([4]; at 500 nM) was roughly 60%, the “tumor shrinkage (luciferase activity)” value ([5]; after one-week drug exposure) was roughly 50% and the “tumor burden (luciferase activity)” value ([5]; after three weeks drug treatment) was “lower”.
